Columns and labels:
NaV1.2[F385C] = NaV1.2[F385C] (Rattus norvegicus, UniProt P04775, F385C); conditions: cited from earlier work
NaV1.2 = NaV1.2 (Rattus norvegicus, UniProt P04775)
Chain of NaV1.2 (P04775 whole entry, looked up): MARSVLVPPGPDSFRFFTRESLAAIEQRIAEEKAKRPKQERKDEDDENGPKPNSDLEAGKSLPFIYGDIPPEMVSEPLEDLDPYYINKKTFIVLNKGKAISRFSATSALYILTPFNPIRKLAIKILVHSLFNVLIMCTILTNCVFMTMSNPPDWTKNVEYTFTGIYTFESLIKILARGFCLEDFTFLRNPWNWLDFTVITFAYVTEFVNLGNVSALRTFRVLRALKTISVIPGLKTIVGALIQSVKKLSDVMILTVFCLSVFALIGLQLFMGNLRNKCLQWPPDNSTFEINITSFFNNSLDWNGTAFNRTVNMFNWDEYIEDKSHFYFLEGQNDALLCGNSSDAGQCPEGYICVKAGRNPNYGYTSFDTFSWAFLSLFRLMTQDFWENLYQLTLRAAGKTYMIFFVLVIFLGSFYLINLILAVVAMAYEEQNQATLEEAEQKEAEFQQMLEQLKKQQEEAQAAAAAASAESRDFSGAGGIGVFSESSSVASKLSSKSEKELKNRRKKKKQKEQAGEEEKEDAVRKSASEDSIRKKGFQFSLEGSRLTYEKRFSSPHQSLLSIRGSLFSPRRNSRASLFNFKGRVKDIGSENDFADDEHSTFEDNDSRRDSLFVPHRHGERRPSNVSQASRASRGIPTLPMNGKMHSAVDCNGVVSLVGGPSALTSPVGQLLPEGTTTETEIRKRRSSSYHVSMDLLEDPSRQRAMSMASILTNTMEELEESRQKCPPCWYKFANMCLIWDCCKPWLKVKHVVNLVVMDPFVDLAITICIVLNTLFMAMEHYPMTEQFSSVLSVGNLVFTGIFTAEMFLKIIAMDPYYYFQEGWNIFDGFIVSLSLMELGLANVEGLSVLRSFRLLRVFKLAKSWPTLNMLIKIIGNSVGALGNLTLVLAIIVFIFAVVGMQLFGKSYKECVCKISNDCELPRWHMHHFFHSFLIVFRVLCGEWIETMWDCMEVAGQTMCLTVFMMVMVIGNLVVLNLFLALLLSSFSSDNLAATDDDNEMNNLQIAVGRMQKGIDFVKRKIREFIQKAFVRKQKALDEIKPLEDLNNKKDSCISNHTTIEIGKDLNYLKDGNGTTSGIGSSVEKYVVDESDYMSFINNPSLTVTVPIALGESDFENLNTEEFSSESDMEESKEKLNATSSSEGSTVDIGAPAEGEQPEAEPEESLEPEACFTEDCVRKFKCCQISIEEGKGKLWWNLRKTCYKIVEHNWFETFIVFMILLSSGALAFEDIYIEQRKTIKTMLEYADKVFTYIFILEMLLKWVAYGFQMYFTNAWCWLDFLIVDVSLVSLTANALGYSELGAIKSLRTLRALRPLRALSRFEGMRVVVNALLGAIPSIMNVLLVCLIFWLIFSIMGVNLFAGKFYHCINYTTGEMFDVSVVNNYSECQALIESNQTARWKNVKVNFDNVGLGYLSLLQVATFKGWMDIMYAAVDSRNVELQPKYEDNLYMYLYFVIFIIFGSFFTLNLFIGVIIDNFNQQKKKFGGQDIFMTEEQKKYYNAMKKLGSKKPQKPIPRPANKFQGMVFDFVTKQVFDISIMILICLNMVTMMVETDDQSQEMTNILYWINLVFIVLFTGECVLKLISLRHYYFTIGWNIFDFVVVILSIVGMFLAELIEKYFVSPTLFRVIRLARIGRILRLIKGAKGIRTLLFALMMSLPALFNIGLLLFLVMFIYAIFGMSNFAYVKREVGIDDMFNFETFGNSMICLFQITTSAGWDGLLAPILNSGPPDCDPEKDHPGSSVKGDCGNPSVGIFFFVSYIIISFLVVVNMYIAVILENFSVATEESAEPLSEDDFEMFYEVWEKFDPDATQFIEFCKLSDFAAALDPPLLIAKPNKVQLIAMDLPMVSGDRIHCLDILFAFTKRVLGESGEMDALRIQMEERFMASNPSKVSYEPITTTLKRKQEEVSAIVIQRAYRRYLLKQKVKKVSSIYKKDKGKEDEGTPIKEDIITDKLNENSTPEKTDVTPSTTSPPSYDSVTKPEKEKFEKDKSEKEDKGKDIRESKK

Chain of NaV1.2[F385C] (P04775 whole entry F385C, looked up): as the sequence (P04775 whole entry, looked up) above, with F385C counted along it

## NC1=N[C@H](O)[C@H]2[C@H]3O[C@]4(O)O[C@@H]([C@@H](O)[C@@]2(N1)[C@@H]4O)[C@]3(O)CO [TTX, Tetrodotoxin]
NaV1.2[F385C]
  sensitivity of NaV1.2[F385C]: insensitive
NaV1.2
  Plateau of block at saturating [toxin] (Langmuir fit): 100%

— article PMC2878737 (Channels (Austin, Tex.), 2009)
